These results are taken from US20130337564A1, “Treatment of Pluripotent Cells” (Janssen Biotech, Inc., priority 2012, published 2013).

The test system of experiment [1] is human embryonic stem cells (H9 or H1 lines). Briefly: Plate reader (MTS) proliferation assay. The conditions noted are these: for Average (of Raw Data): plate reader raw signal, mean of replicate wells; for activity at 10 µM: Homo sapiens, Embryonic stem cell, 96 h; for Average: average of replicate raw data; for Raw Data: replicate wells, plate reader proliferation screen of GSK-3B inhibitors. Type of experiment: cell-based. The method, then: Maintenance of human embryonic stem cells (H9 or H1 lines) was conducted as described in Example 1. Colonies of cells were maintained in an undifferentiated, pluripotent state with passage on average every four days. Passage was performed by exposing cell cultures to a solution of collagenase (1 mg/ml; Sigma-Aldrich) for 10 to 30 minutes at 37° C. followed by gentle scraping with a pipette tip to recover cell clusters. Clusters were allowed to sediment and washed to remove residual collagenase. Cell clusters were split at a ratio of 1:3 monolayer area for routine culture or a 1:1 ratio for immediate assay. The human embryonis stem cell lines used for these examples were maintained at passage numbers less than 50 and routinely evaluated for normal karyotypic phenotype as well as absence of mycoplasm contamination.
Cell clusters used in assay were evenly resuspended in normal culture medium and plated into MATRIGEL-coated 96-well Packard VIEWPLATES (PerkinElmer) in volumes of 100 μl/well. MEF conditioned medium supplemented with 8 ng/ml bFGF) was used for initial plating and recovery. Daily feeding was conducted by aspirating spent culture medium from each well and replacing with an equal volume of fresh medium. Plates were maintained at 37° C. in a humidified box, 5% CO2 throughout the duration of assay.
Primary screening assays were initiated by aspirating culture medium from each well followed by three washes in PBS to remove residual growth factors and serum. Test volumes of 80-100 μl per well were added back containing DMEM:F12 base medium (Invitrogen) supplemented with 0.5% FCS (HyClone) and 100 ng/ml activin A (R&D Biosystems) and 10 μM test compound. Positive control wells contained the same medium substituting 10-20 ng/ml Wnt3a (R&D Biosystems). Negative control wells contained base medium with 0.5% FCS without activin A or Wnt3a. Screening compounds were tested in triplicate. Wells were aspirated and fed again with identical solutions on day 2 of the assay. On days 3 and 4, all assay wells were aspirated and converted to DMEM:F 12 supplemented with 2% FCS and 100 ng/ml activin A with the exception of negative control wells which were maintained in DMEM:F12 base medium with 2% FCS.
On day 4 of assay, 15-20 μl of MTS (Promega) was added to each well and plates were incubated at 37° C. for 1.5 to 4 hours. Densitometric readings at OD490 were determined using a Molecular Devices spectrophotometer plate reader. Average readings for replicate sets were calculated along with standard deviation and coefficient of variation. Experimental wells were compared to the Activin A/Wnt3a positive control to calculate a percent control value as a measure of proliferation.
Strong hits are defined as greater than or equal to 120% of control values; moderate hits are defined as falling within the interval of 60-120% of control values. A significant number of compounds induce a proliferative response in this assay.

For experiment [2], the system named is human embryonic stem cell line H1. Nature of the experiment: Dose titration secondary assay: cell number, H1. Type of experiment: cell-based. The conditions noted are these: Homo sapiens, Embryonic stem cell, positive control (Wnt3a/Activin A) normalized to 1.000. The method, then: It was important to confirm the activity of hits identified from primary screening and further analyze the range of activity by dose titration. New samples of a selective subset of primary screening hits were obtained as dry powders, solubilized to make fresh stock reagents, and diluted into secondary confirmation assays to evaluate effects on human embryonic stem cells.
Culture of two human embryonic stem cells (H1 and H9) was conducted as described in Example 1. Colonies of cells were maintained in an undifferentiated, pluripotent state on Matrigel™ ([…]) coated polystyrene plastic, using a 1:30 dilution of Matrigel™ in DMEM:F12 to coat the surface. Cells were split by enzymatic passage every four days on average. Passage was performed by exposing cell monolayers to a solution of collagenase (1 mg/ml; Sigma-Aldrich) for 10 to 60 minutes at 37° C. followed by gentle scraping with a pipette tip to recover cell clusters. Clusters were allowed to sediment by gravity, then washed to remove residual collagenase. Cell clusters were split at a 1:3 ratio for maintenance culture or a 1:1 ratio for subsequent assay. The human embryonic stem cell lines were maintained at less than passage 50 and routinely evaluated for normal karyotypic phenotype and absence of mycoplasma contamination.
Cell clusters of the H1 or H9 human embryonic stem cell lines used in the assay were evenly resuspended in culture medium and plated onto Matrigel™-coated 96-well Packard VIEWPLATES (PerkinElmer) in volumes of 100 μl/well. MEF conditioned medium supplemented with 8 ng/ml bFGF was used for initial plating and expansion. Daily feeding was conducted by aspirating spent culture medium from each well and replacing with an equal volume of fresh medium. Cultures were allowed to expand one to three days after plating prior to initiating assay. Plates were maintained at 37° C., 5% CO2 in a humidified box for the duration of assay.
A subset of hits resulting from primary screening was used for follow-up study and subsequent secondary assays. Twenty compounds available as dry powders were solubilized as 10 mM stocks in DMSO and stored dessicated at […] until use Immediately prior to assay, compound stocks were diluted 1:1000 to make 10 μM test compound in DMEM:F12 base medium (Invitrogen) supplemented with 0.5% FCS (HyClone) and 100 ng/ml Activin A (R&D Biosystems). This was further diluted two-fold in series to make a seven point dilution curve for each compound, also in DMEM:F12 base medium with 0.5% FCS and 100 ng/ml Activin A.
Assay was initiated by aspirating culture medium from cell monolayers in each well followed by three washes in PBS to remove residual growth factors and serum. Test volumes of 100 μl per well were added back containing medium with 0.5% FCS and different concentrations of inhibitor compounds with 100 ng/ml Activin A, without Wnt3a. Positive control wells contained the same base medium with 0.5% FCS and with 20 ng/ml Wnt3a (R&D Biosystems) in the absence of test compound. Negative control wells contained the same base medium with 0.5% FCS, in the absence of Activin A, Wnt3a, or test compound. Assay wells were aspirated and fed again with identical concentrations of test compound or control solutions on day 2 of assay. On days 3 and 4, all assay wells were aspirated and fed with DMEM:F12 supplemented with 2% FCS and 100 ng/ml Activin A in the absence of both test compound or Wnt3a. Parallel negative control wells were maintained on days 3 and 4 in DMEM:F12 base medium with 2% FCS.
At the end of culture, cells in 96-well plates were washed twice with PBS then fixed with 4% paraformaldehyde at room temperature for 20 minutes, washed three times more with PBS, and then permeabilized with 0.5% Triton X-100 for 20 minutes at room temperature. After fixing and permeabilizing, cells were washed again three times with PBS and then blocked with 4% chicken serum (Invitrogen) in PBS for 30 minutes at room temperature. […]

[3] abbreviates: proliferation of human embryonic stem cells.
Where [4] appears, read: 10 μM test compound with 100 ng/ml activin A on days 1-2, MTS OD490 on day 4, vs Activin A/Wnt3a positive control, strong and moderate hits.

Structures are written as SMILES. “And” between values parts separate entries of the source, which are not always exact repeats. Equal values may be shown once.

Consider `O=C1NC(=O)C(c2cn(CCCO)c3ncccc23)=C1c1cccs1` [Compound 17, 3-[1-(3-Hydroxypropyl)-1H-pyrrolo[2,3-b]pyridin-3-yl]-4-thiophen-2-yl-1H-pyrrole-2,5-dione], for which the “Average (of Raw Data)” value in experiment [1] (setting [3]) was found to be 0.4114.
Turning to `O=C1NC(=O)C(c2cn(CCCO)c3ncccc23)=C1c1cnccn1` [Compound 47, 3-[1-(3-Hydroxypropyl)-1H-pyrrolo[2,3-b]pyridin-3-yl]-4-pyrazin-2-yl-1H-pyrrole-2,5-dione], the activity at 0.156 µM in experiment [2] (Conc 0.156 μM) came to 71.2%. In experiment [2] (Conc 0.313 μM), the activity at 0.313 µM was determined as 74.2%. The activity at 0.625 µM in experiment [2] (Conc 0.625 μM) was 83.2%. The activity at 1.25 µM in experiment [2] (Conc 1.25 μM) amounted to 101%. In addition, the activity at 2.5 µM in experiment [2] (Conc 2.5 μM) was 93.2%. For the same compound, the activity at 5 µM in experiment [2] (Conc 5 μM) was determined as 110%. In addition, in experiment [2] (Conc 10 μM), the activity at 10 µM was 105%.
For `O=C1NC(=O)C(c2cn(-c3cncnc3)c3ccccc23)=C1c1cn(CCO)c2ccccc12` [Compound 230, 3-[1-(2-Hydroxyethyl)-1H-indol-3-yl]-4-(1-pyrimidin-5-yl-1H-indol-3-yl)-1H-pyrrole-2,5-dione], the activity at 10 µM in experiment [1] (setting [4]) was found to be 147%. Moreover, the Average in experiment [1] came out at 2.0358.
In the case of `O=C1NC(=O)C2=C1c1cn(c3ccccc13)CCOCCOCCOCCOCCn1cc2c2ccccc21` [Compound 165, 10,11,13,14,16,17,19,20,22,23-Decahydro-1H-9,4:24,29-di(metheno)dibenzo[n,t]pyrrolo[3,4-q][1,4,7,10,13,22]tetraoxadiazacyclotetracosine-1,3(2H)-dione], in experiment [1] (setting [4]), the “% Control Value (proliferation)” value came to 195.3%. Also, in experiment [1], the Average amounted to 1.8175; the “Raw Data” value is 1.7896 and 1.4721 and 2.1908.
With `COCCCn1cc(C2=C(c3ccccc3O)C(=O)NC2=O)c2cccnc21` [Compound 22, 3-(2-Hydroxyphenyl)-4-{1-[3-(methyloxy)propyl]-1H-pyrrolo[2,3-b]pyridin-3-yl}-1H-pyrrole-2,5-dione], the “Average (of Raw Data)” value in experiment [1] (setting [3]) amounted to 0.3385.
In the case of `CN(C)CCCn1cc(C2=C(c3cccc4ccccc34)C(=O)NC2=O)c2cccnc21` [Compound 175, 3-{1-[3-(Dimethylamino)propyl]-1H-pyrrolo[2,3-b]pyridin-3-yl}-4-naphthalen-1-yl-1H-pyrrole-2,5-dione], the Average in experiment [1] is 0.1467.
As for `COc1ccccc1C1=C(c2cn(CCCNC(C)=O)c3ncccc23)C(=O)NC1=O` [Compound 27, N-[3-(3-{4-[2-(Methyloxy)phenyl]-2,5-dioxo-2,5-dihydro-1H-pyrrol-3-yl}-1H-pyrrolo[2,3-b]pyridin-1-yl)propyl]acetamide], the “Average (of Raw Data)” value in experiment [1] (setting [3]) came to 0.1152.
In the case of `O=C1NC(=O)C2=C1c1cn(c3ncccc13)CCOCCOCCn1cc2c2cccnc21` [Compound 180, 6,7,9,10,12,13-Hexahydro-20H-5,23:14,19-di(metheno)dipyrido[2,3-h:3′,2′-n]pyrrolo[3,4-k][1,4,7,16]dioxadiazacyclooctadecine-20,22(21H)-dione], the Average in experiment [1] turned out to be 0.1247. Also, the “Average (of Raw Data)” value in experiment [1] (setting [3]) came out at 0.3793. For the same compound, the “% Control” value in experiment [1] (proliferation of human embryonic stem cells, AA/Wnt3a = 100.0, no cells = 0.0) was found to be 29.3%; in experiment [1] (relative to AA/Wnt3a/DMSO positive control (100.0) of the same plate), 13.4%. Moreover, the “Raw Data” value in experiment [1] was 0.1239 and 0.1233 and 0.1269.
As to `O=C1NC(=O)C(c2cn(CCCO)c3ncccc23)=C1c1cc(Cl)sc1Cl` [Compound 18, 3-(2,5-Dichlorothiophen-3-yl)-4-[1-(3-hydroxypropyl)-1H-pyrrolo[2,3-b]pyridin-3-yl]-1H-pyrrole-2,5-dione], the “Average (of Raw Data)” value in experiment [1] (setting [3]) was found to be 0.1442.
With `Cn1ccc(C2=C(c3cn(CCCO)c4ncccc34)C(=O)NC2=O)n1` [Compound 209], in experiment [1] (setting [4]), the activity at 10 µM was determined as 67.4%. For the same compound, the Average in experiment [1] was 1.0739.
For `Cn1cc(C2=C(c3nn(CCCn4ccnc4)c4ccccc34)C(=O)NC2=O)c2cc(Cl)ccc21` [Compound 231, 3-(5-Chloro-1-methyl-1H-indol-3-yl)-4-{1-[3-(1H-imidazol-1-yl)propyl]-1H-indazol-3-yl}-1H-pyrrole-2,5-dione], in that order: 114% and 1.6020.
As for `O=C1NC(=O)C(c2cn(CCCO)c3ncccc23)=C1c1ccccc1C(F)(F)F` [Compound 16, 3-[1-(3-Hydroxypropyl)-1H-pyrrolo[2,3-b]pyridin-3-yl]-4-[2-(trifluoromethyl)phenyl]-1H-pyrrole-2,5-dione], the activity at 10 µM in experiment [1] (setting [4]) was found to be 85.5%. The “Average (of Raw Data)” value in experiment [1] (setting [3]) came to 0.8575.
For `O=C1NC(=O)C(c2cn(CCCO)c3ncccc23)=C1c1cn(CCCO)cn1` [Compound 182, 3-[1-(3-Hydroxypropyl)-1H-imidazol-4-yl]-4-[1-(3-hydroxypropyl)-1H-pyrrolo[2,3-b]pyridin-3-yl]-1H-pyrrole-2,5-dione], the Average in experiment [1] is on record as 0.2828.
Take `COc1ccccc1C1=C(c2cn(CCCNC(=O)OC(C)(C)C)c3ncccc23)C(=O)NC1=O` [Compound 26, 1,1-Dimethylethyl [3-(3-{4-[2-(methyloxy)phenyl]-2,5-dioxo-2,5-dihydro-1H-pyrrol-3-yl}-1H-pyrrolo[2,3-b]pyridin-1-yl)propyl]carbamate]: the “Average (of Raw Data)” value in experiment [1] (setting [3]) is recorded as 0.3611.
